Assay results reported in patent US20250268863A1, “DOSING REGIMENS FOR TREATMENT OF PATIENTS WITH LOCALLY ADVANCED SQUAMOUS CELL CARCINOMA” (priority 2019, published 2025).
“Also recorded” adds a separate entry of the source.

What was measured:
[1] = tested on: locally advanced squamous cell cancer of the head and neck (LA-SCCHN); experiment: Double-blind randomised placebo-controlled Phase II study of Debio 1143 + CRT: efficacy; format: in vivo, human; settings: for Locoregional control rate at 18 months after CRT: 200 mg/day days 1-14 q3w + cisplatin CRT, N = 48 (ITT); for complete response / partial response: of 48 patients
Procedure: 96 patients were randomized 95 were treated.
The primary endpoint to the study was locoregional control rate (LRC) at 18 months after CRT. Key secondary endpoints included PFS, duration of LRC, overall survival, […] and CR at 3 and 6 months after CRT completion.
The main inclusion criteria were as follows: • Previously untreated, inoperable (unresectable) Stage III, Stage IVA, or Stage IVB as per AJCC TNM staging version 7.0 (2010) • LA-SCCHN of the oral cavity, hypopharynx, larynx, or oropharynx (HPV/p16 both negative or positive) • Heavy smoking history (>10 pack-years) • Negative HIV/HBV/HCV • Performance Status by Eastern Cooperative Oncology Group (ECOG)=0 or 1.
The main exclusion criteria were as follows: • Non-compensated liver cirrhosis (Child-Pugh class C) • >75 years • Non-cisplatin eligible.
A multicentre, phase 2, double-blind, randomised, placebo-controlled study was conducted to evaluate the safety and efficacy of oral Debio 1143 at 200 mg/day on Days 1-14 of 21-Day cycles combined with concomitant cisplatin-based chemoradiotherapy in patients with LA-SCCHN. Male and female patients were eligible if they were aged 18 to 75 years with histologically confirmed LA-SCCHN and fulfilled the following criteria: previously untreated, stage III, IVa or IVb (according to the American Joint Committee on Cancer 2010 staging system [AJCC TNM v7.0 2010]) of one or more of the following sites: oral cavity, oropharynx, hypopharynx and larynx and with T 2-4, N0-3, M0 measurable disease according to Response Evaluation Criteria in Solid Tumours (RECIST), version 1⋅1. Patients were to have a smoking history of more than 10 pack-years, and no medical history of hepatitis B or hepatitis C. For patients with oropharyngeal cancer, tumour HPV-status was determined by the presence of p16 using immunohistochemistry. Other inclusion criteria included: Eastern Cooperative Oncology Group (ECOG) performance status of 0 or 1, no clinically significant cardiac disease and no clinically significant hearing impairment that would have contraindicated the use of chemotherapy with HD-cisplatin.
Exclusion criteria included nasopharyngeal, paranasal sinuses, nasal cavity tumours or thyroid cancers, squamous cell cancer involving cervical neck nodes but from unknown primary site, unknown lymph node status, metastatic disease, any prior or current treatment for invasive head and neck cancer of any kind (including, but not limited to, prior tyrosine kinase inhibitors, prior neoadjuvant therapy, prior surgical resection, or use of any investigational agent), weight loss of >10% during the previous month, non-compensated liver cirrhosis, gastro-intestinal disorders that could affect drug absorption, concurrent treatment with any other systemic anticancer therapy or concomitant treatment with any drug on the prohibited medication list, history of uncontrolled or symptomatic angina, arrhythmias, or congestive heart failure, history of another malignancy within the last 5 years with the exception of completely resected basal or squamous cell skin cancer or successfully treated in-situ carcinoma, history of non-invasive lesion or in-situ carcinoma, including in the head and neck region that was successfully treated with surgery, peripheral neuropathy (grade 2 or above), clinical hearing loss, history of allergic reactions to appropriate antiemetics, human immunodeficiency virus infection. The protocol was approved by the institutional review boards or ethics committees of all participating centres. The study was carried out in accordance with the protocol, the principles expressed in the Declaration of Helsinki, and applicable regulatory requirements. All patients provided written informed consent in advance of study-specific procedures. […]

[2] = tested on: locally advanced squamous cell cancer of the head and neck (LA-SCCHN); experiment: Double-blind randomised placebo-controlled Phase II study of Debio 1143 + CRT: safety
Procedure: A double-blind randomized placebo-controlled Phase II study was conducted. […] All subjects received 100 mg/m^2 cisplatin on day 2 of each three-week cycle (up to three cycles) concomitantly with radiotherapy (RT). The subjects also received standard fractionation RT with 2 Gy/daily on five days/week for seven weeks up to 70 Gy delivered to the gross-tumor volume (GTV) and 50 Gy to eligible lymph nodes loco-regionally.
Conventional fractionated intensity modulated radiotherapy (IMRT) was delivered to the gross tumour volume (GTV, [primary tumour and involved nodes]), to a total dose of 70 Gy in 2 Gy daily fractions, for 5 days per week over 7 weeks. Primary and neck nodal areas with no tumour involvement (elective/prophylactic irradiation areas) received a total dose of 50 Gy. In accordance with the European Society of Medical Oncology guidelines, patients received prophylactic treatment with granisetron or palonosetron, dexamethasone and aprepitant, prior to and after cisplatin to prevent renal damage and emesis.
Medical history and demographics were collected at screening. Physical examination was conducted at screening, on day 1 of each cycle, at the end of study visit, at the safety follow-up visit and at each subsequent efficacy follow-up visit. Adverse events and co-medication were monitored throughout the study from signature of informed consent (28 days prior to the first dose) until 30 days after the last dose of study drug. Adverse events were graded according to Common Terminology Criteria for Adverse Events (NCI CTCAE) version 4⋅03. All information pertaining to unusual manifestations or adverse events was collected by the investigator at each visit. […] Late toxicities were defined in the protocol and monitored throughout the efficacy follow-up period until the end of study visit.

[3] = tested on: locally advanced squamous cell cancer of the head and neck (LA-SCCHN); experiment: Dose escalation of Debio 1143 with concurrent chemoradiotherapy (MTD determination); format: in vivo
Procedure: Additionally, for each Debio 1143 dose level (DL) and overall, according to variant 1 of this example: • (a) the safety profile of Debio 1143 in combination with concurrent CRT was assessed; • (b) the antitumour activity of the recommended dose (RD) of Debio 1143 in combination with concurrent CRT in the study population was evaluated. • In a variant 2 of this example, the following items (c) to (f) were explored in addition to items (a) and (b) of variant 1: • (c) the pharmacokinetics (PK) of Debio 1143 and cisplatin when administered in combination with radiation therapy, and explore the potential for drug-drug interactions of Debio 1143 in combination with cisplatin was explored; • (d) the pharmacodynamic (PDy) biomarkers of Debio 1143 activity in combination with concurrent CRT were explored; • (e) the PK/PDy, PK/efficacy, PK/safety, PDy/efficacy and PDy/safety relationships and pharmacogenetic (PGx) factors that may affect Debio 1143 PK were explored; and • (f) the pharmacogenomic and tumour PGx factors were explored.
During the screening phase, subjects were evaluated and staged using the American Joint Committee on Cancer (“AJCC”) […] staging system.
Escalating doses of Debio 1143 were added to CRT. […] The starting dose of Debio 1143 in this combination study was 100 mg/day over 14 days every 21 days. […]

[4] = as of 21 Jul. 2020, median follow-up 33 months
[5] = first tumour evaluation, approximately 11 weeks after chemoradiotherapy
[6] = six months post chemoradiotherapy
[7] = two-year follow-up, data cut off 15 Jul. 2019

CN[C@@H](C)C(=O)N[C@H]1CN(C(=O)CC(C)C)CC[C@H]2CC[C@@H](C(=O)NC(c3ccccc3)c3ccccc3)N2C1=O [Debio 1143, (5S,8S,10aR)—N-benzhydryl-5-[[(2S)-2-(methylamino)propanoyl]amino]-3-(3-methylbutanoyl)-6-oxo-1,2,4,5,8,9,10,10a-octahydropyrrolo[1,2-a][1,5]diazocine-8-carboxamide] was tested, and the “Locoregional control rate at 18 months after CRT” value [1] was 54%, the “Locoregional control rate at 18 months after CRT” value ([1]; listed as Debio 1143 + CRT) was 54.2% and the “Odds Ratio for locoregional control at 18 months (Debio 1143 vs Placebo)” value ([1]; N = 48 per arm) was 2.69. The “3 years OS rate” value ([1]; as of 21 Jul. 2020) was 66%, the “Kaplan-Meier estimate of locoregional control at 36 months after the end of chemoradiotherapy” value ([1]; as of 21 Jul. 2020) was 78% and the “hazard ratio, duration of locoregional control vs placebo” value ([1]; as of 21 Jul. 2020) was 0.47. For the same molecule, the “median duration of locoregional control” value ([1]; as of 21 Jul. 2020) was “not reached”, the “probability of PFS at 36 months” value ([1]; as of 21 Jul. 2020) was 72% and the “reduction of the risk of disease progression or death vs placebo” value ([1]; as of 21 Jul. 2020) was 66%. The “hazard ratio, PFS vs placebo” value ([1]; as of 21 Jul. 2020, 36 months of follow up) was 0.34, the “hazard ratio, overall survival vs placebo” value [1, 4] was 0.49 and the “median OS” value [1, 4] was “not reached”. For the same molecule, the “reduction of the risk of mortality vs placebo” value [1, 4] was 51%, the median overall survival ([1]; by 24 months) was “not yet reached” and the “Kaplan-Meier estimate of locoregional control at 18 months after the end of chemoradiotherapy” value ([1]; data cut off 15 Jul. 2019) was 78%. For the same molecule, the “hazard ratio, duration of locoregional control vs placebo” value ([1]; data cut off 15 Jul. 2019) was 0.53, the “median duration of locoregional control” value ([1]; data cut off 15 Jul. 2019) was “not reached” and the median progression-free survival ([1]; data cut off 15 Jul. 2019) was “not reached”. The “proportion of patients progression-free at 24 months” value ([1]; data cut off 15 Jul. 2019) was 72%, the complete response [1, 5] was 35% and the partial response [1, 5] was 27%. For the same molecule, the complete response [1, 6] was 52%, the partial response [1, 6] was 15% and the “hazard ratio, overall survival vs placebo” value [1, 7] was 0.65. For the same molecule, the “hazard ratio, progression-free survival vs placebo” value [1, 7] was 0.37, the patients who died ([2]; data cut off 15 Jul. 2019) was 14 patients and the “grade 3 bilirubin increases” value ([2]; in vivo) was “no grade 3 bilirubin increases”. For the same molecule, the “grade 4 transaminase increases” value ([2]; in vivo) was “no grade 4 transaminase increases”, the “patients with alanine aminotransferase increase leading to dose reduction” value ([2]; most common event leading to dose reduction) was 10% and the “patients who discontinued Debio 1143” value ([2]; of 48 patients) was 15%. For the same molecule, the “patients with adverse events of at least grade 3” value ([2]; of 48 patients) was 85%, the “patients with grade 1-2 tinnitus” value ([2]; of 48 patients) was 31% and the “patients with grade 4 events” value ([2]; of 48 patients) was 19%. The “patients with grade 5 events” value ([2]; of 48 patients) was “none”, the “patients with serious treatment-emergent adverse events” value ([2]; of 48 patients) was 63% and the “patients with treatment-emergent adverse events leading to dose reductions of Debio 1143” value ([2]; of 48 patients) was 19%. For the same molecule, the late toxicities ([2]; onset >60 days after CRT end, vs placebo) was “very similar and not increased; also recorded: late toxicity was balanced”, the “frequency or severity of cisplatin-associated adverse events” value ([2]; renal insufficiency, febrile neutropenia, thrombocytopenia, peripheral sensory neuropathy, severe vomiting, exception grade 1-2 tinnitus) was “did not increase the frequency or severity” and the “overall safety and tolerability of Debio 1143 added to chemoradiotherapy” value ([2]; vs placebo + CRT) was “well tolerated; also recorded: remained unchanged”. For the same molecule, the “grade 3 increases in aspartate aminotransferase and alanine aminotransferase” value ([2]; vs placebo group) was “higher”, the “incidence of grade 3 anaemia” value ([2]; vs placebo group) was “higher incidence” and the “incidence of grade 4 neutropenia” value ([2]; vs placebo group) was “higher incidence”. For the same molecule, the “efficacy versus CRT+placebo” value ([3]; high risk LA-SCCHN subjects) was “significantly improves efficacy” and the “maximum tolerated dose (MTD)” value ([3]; oral daily for 14 days every three weeks, with cisplatin 100 mg/m^2 and RT 70 Gy) was 200 mg.
